Results on 18 molecules are retold here after patent US9315492B2, “Heterocyclic group contained amino-methanol derivative, and salt, synthetic method and use thereof” (BEIJING FORELAND BIOPHARMA CO., LTD., priority 2012, dated 2016).

In assay [1] the target is T1, S1P1 (Homo sapiens (Human), UniProt P21453). Nature of the assay: S1P1 GTPγS binding assay. The conditions noted are these: [35S]-GTPγS, membranes with high-expressed S1P1 (CHO-S1P1). In kind it is biochemical. Here is the method: 1. S1P1GTPγS Binding Assay
T1 sequence (P21453 whole entry): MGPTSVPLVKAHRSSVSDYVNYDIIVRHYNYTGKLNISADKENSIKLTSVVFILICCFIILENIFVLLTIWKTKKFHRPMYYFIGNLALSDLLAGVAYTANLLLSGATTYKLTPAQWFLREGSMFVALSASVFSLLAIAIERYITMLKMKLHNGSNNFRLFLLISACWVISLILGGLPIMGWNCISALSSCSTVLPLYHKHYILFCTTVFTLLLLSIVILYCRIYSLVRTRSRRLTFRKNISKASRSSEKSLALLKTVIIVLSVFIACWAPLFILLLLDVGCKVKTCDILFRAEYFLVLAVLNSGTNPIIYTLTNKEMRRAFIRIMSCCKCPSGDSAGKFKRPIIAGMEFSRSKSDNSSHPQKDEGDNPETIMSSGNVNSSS
2) T-75 cell culture plate; 150 mm cell culture dish
3) DMEM cell culture fluid; 10% (v/v) fetal bovine serum; 100 U/ml penicillin-100 μg/ml streptomycin; 2 mM […], 1 mg/ml G-418
4) Cell Lysis Buffer: HEPES 20 mM (pH 7.4), EDTA 10 mM
5) Stock solution: HEPES 20 mM, EDTA 0.1 mM
6) Binding Buffer; HEPES 20 mM (pH 7.4), NaCl 100 mM, MgCl2 5 mM, GDP 1 μM, BSA 0.1% (w/v), DMSO 2.5% (v/v),
7) Washing solution: NaH2PO4 10 mM (pH 7.4)
The test compounds were dissolved in DMSO and prepared as a concentration of 20 mM.
The concentrations of the compounds were detected ranging from 0.3 nM to 20 μM.
Control group: […] SIP and SEW2871 were used as positive control and were purchased from Tocris company, and the binding buffet was as negative control.
Test method: wetting membranes by saponin solution, and preparing [^35S]-GTPγS in binding solution (4×). The test compound was prepared as 4× of the final concentration which was then performed serial 3× dilution in 100% DMSO. Membranes with high-expressed S1P1 were collected in 5 ml binding buffer, and 50 μL was added to 96-well (containing 5 μg membrane protein with high-expressed S1P1). 25 μL, test compound was added in each well. The compound was incubated with the membranes for 30 min at room temperature, then 25 μL [^35S]-GTPγS was added, and the experiment was initiated. The 96-well detection plate was incubated for 1 hour at room temperature, filtered by filtermat B, and washed with washing solution for three times. After the plate was dried for 1 h at 50° C., 8 ml scintillator solution was added and counted using scintillation counter.
Result Analysis and Determination of 50% Inhibitory Concentration (IC50):
The IC50 value was calculated by using (Prism 4) software, and 50% inhibitory concentrations were obtained.

The target of assay [2] is T1, S1P1. Nature of the assay: S1P1 β-arrestin assay (PathHunter CHO-K1 EDG1). In kind it is cell-based. As to conditions: CHO-EDG-1 cells. Here is the method: 2.1 Experimental Materials: Path hunter express CHO-K1 EDG1 β-arrestin GPCR Assay was purchased from DiscoveRx, containing CHO-EDG-1 cells, buffers, substrate-1, substrate-2, cell culture fluid, 96-well cell culture plate.
1) The test compounds were dissolved in DMSO and prepared as a concentration of 20 mM.
2) The concentrations of the test compounds were detected ranging from […] to 20 μM.
4) Assay procedures: OCC culture solution was preheated in water tank at 37° C. Cells were taken out from liquor nitrogen tank, left on the dry-ice, and dissolved in water tank at 37° C. 0.5 ml OCC culture solution was added and blended slowly. The cells were diluted in 11.5 mL OCC culture solution, and 100 μL cell suspension (containing 8333 cells) was added to each well of the 96-well plate. The 96-well plate was incubated for 8 hours under 5% CO2 at 37° C., and 10 μL test compound dissolved in DMSO was added in; 10 μL DMSO was used as negative control. After the plate was incubated for 90 min at 37° C., 55 μL detection solution was added to each well. Then the results were read out by EnVision after the cell plate was incubated for 90 min at room temperature.
The EC50 Value was Calculated by Using Prism 4 Software

For the molecule `COCCOc1ccc(-c2nnc(-c3ccc4c(c3)CC(N)(CO)CC4)o2)cc1` (stereo not shown) [Example 10, 7-{5-[4-(2-methoxyethoxy)phenyl]-2-[1,3,4]oxdiazolyl]-2-amino-1,2,3,4-tetrahydro-naphthalen-2-yl-methanol], the IC50 at S1P1 [1] was 31.7 nM. The same molecule came in with an EC50 at S1P1 [2] of 77 nM.
The matching figures for `CC(C)Oc1ccc(-c2nnc(-c3ccc4c(c3)CC(N)(CO)CC4)o2)cc1C(F)(F)F` (stereo not shown) [Example 11, 7-[5-(3-trifluoromethyl-4-isopropoxyphenyl)-2-[1,3,4]oxdiazolyl]-2-amino-1,2,3,4-tetrahydronaphthalen-2-yl-methanol]: 0.4 nM and 3.1 nM.
The corresponding values for `COc1ccc(-c2nnc(-c3ccc4c(c3)CC(N)(CO)CC4)o2)cc1C` (stereo not shown) [Example 15, 7-[5-(4-methoxy-3-methylphenyl)-2-1,3,4-oxdiazolyl]-2-amino-1,2,3,4-tetrahydro-naphthalen-2-yl-methanol] are 16 nM and 27 nM.
Turning to `CC(C)Oc1ccc(-c2nnc(-c3ccc4c(c3)CC(N)(CO)CC4)o2)cc1` (stereo not shown) [Example 16, 7-[5-(4-isopropoxyphenyl)-2-1,3,4-oxdiazolyl]-2-amino-1,2,3,4-tetrahydro-naphthalen-2-yl-methanol], at S1P1 [1], the half-inhibitory concentration (IC50) was 46 nM.
Still for that read-out and setting: then `COCCOc1ccc(-c2nnc(-c3ccc4c(c3)CC(N)(CO)CC4)o2)cc1C(F)(F)F` (stereo not shown) [Example 17, 7-{5-[4-(2-methoxyethoxy)-3-trifluoromethylphenyl]-2-1,3,4-oxdiazolyl}-2-amino-1,2,3,4-tetrahydro-naphthalen-2-yl-methanol], with 10.2 nM; and `COCCOc1ccc(-c2nnc(-c3ccc4c(c3)CC(N)(CO)CC4)o2)cc1C` (stereo not shown) [Example 18, 7-{5-[4-(2-methoxyethoxy)-3-methylphenyl]-2-1,3,4-oxdiazolyl}-2-amino-1,2,3,4-tetrahydro-naphthalen-2-yl-methanol], with 41.1 nM; and `CC(C)Oc1ccc(-c2nnc(-c3ccc4c(c3)CC(N)(CO)CC4)o2)cn1` (stereo not shown) [Example 19, 7-[5-(6-isopropoxy-3-pyridyl)-2-[1,3,4]-oxdiazolyl]-2-amino-1,2,3,4-tetrahydronaphthalen-2-yl-methanol], with 61.2 nM.
Same read-out and setting: as for `CCOc1ccc(-c2nnc(-c3ccc4c(c3)CC(N)(CO)CC4)o2)cc1OCC` (stereo not shown) [Example 20, 7-[5-(3,4-diethoxyphenyl)-2-[1,3,4]-oxdiazolyl]-2-amino-1,2,3,4-tetrahydro-naphthalen-2-yl-methanol], the figure is 179 nM; as for `CCNC1(CO)CCc2ccc(-c3nnc(-c4ccc(OC(C)C)c(C)c4)o3)cc2C1` (stereo not shown) [Example 23, 7-[5-(3-methyl-4-isopropoxyphenyl)-2-1,3,4-oxdiazolyl]-2-ethylamino-1,2,3,4-tetrahydro-naphthalen-2-yl-methanol], 37.6 nM.
As for `Cc1cc(-c2nnc(-c3ccc4c(c3)CC(CO)(N(C)C)CC4)o2)ccc1OC(C)C` (stereo not shown) [Example 24, 7-[5-(3-methyl-4-isopropoxyphenyl)-2-1,3,4-oxdiazolyl]-2-dimethylamino-1,2,3,4-tetrahydro-naphthalen-2-yl-methanol], on S1P1 [1], the IC50 came out at 46 nM. The molecule also had an EC50 on S1P1 [2] of 354 nM.
`CC(=O)NC1(CO)CCc2ccc(-c3nnc(-c4ccc(OC(C)C)c(C)c4)o3)cc2C1` (stereo not shown) [Example 25, N-{2-hydroxymethyl-7-[5-(3-methyl-4-isopropoxyphenyl)-2-1,3,4-oxdiazolyl]-1,2,3,4-tetrahydro-naphthalen-2-yl}acetamide] returned an IC50 at S1P1 [1] of 45.5 nM.
Molecule `Cc1cc(-c2nnc(-c3ccc4c(c3)CC(CO)(NS(C)(=O)=O)CC4)o2)ccc1OC(C)C` (stereo not shown) [Example 26, N-{2-hydroxymethyl-7-[5-(3-methyl-4-isopropoxyphenyl)-2-1,3,4-oxdiazolyl]-1,2,3,4-tetrahydro-naphthalen-2-yl}methanesulfonamide] yielded an IC50 on S1P1 [1] of 86 nM.
At S1P1 [1], `Cc1cc(-c2noc(-c3ccc4c(c3)CC(N)(CO)CC4)n2)ccc1OC(C)C` (stereo not shown) [Example 27, 7-[3-(3-methyl-4-isopropoxyphenyl)-5-1,2,4-oxdiazolyl]-2-amino-1,2,3,4-tetrahydro-naphthalen-2-yl-methanol] registered an IC50 of 1.2 nM. This molecule also came in with an EC50 on S1P1 [2] of 20 nM.
Regarding `Cc1cc(-c2noc(-c3ccc4c(c3)CCC(N)(CO)C4)n2)ccc1OC(C)C` (stereo not shown) [Example 28, 6-[3-(3-methyl-4-isopropoxyphenyl)-5-1,2,4-oxdiazolyl]-2-amino-1,2,3,4-tetrahydro-naphthalen-2-yl-methanol], the IC50 on S1P1 [1] stood at 473 nM.
In turn, `Cc1cc(-c2nc(-c3ccc4c(c3)CC(N)(CO)CC4)no2)ccc1OC(C)C` (stereo not shown) [Example 29, 7-[5-(3-methyl-4-isopropoxyphenyl)-3-1,2,4-oxdiazolyl]-2-amino-1,2,3,4-tetrahydro-naphthalen-2-yl-methanol] had an IC50 at S1P1 [1] of 0.4 nM. Moreover, the EC50 on S1P1 [2] turned out to be 9.9 nM.
At S1P1 [1], `Cc1cc(-c2nc(-c3ccc4c(c3)CCC(N)(CO)C4)no2)ccc1OC(C)C` (stereo not shown) [Example 30, 6-[5-(3-methyl-4-isopropoxyphenyl)-3-1,2,4-oxdiazolyl]-2-amino-1,2,3,4-tetrahydro-naphthalen-2-yl-methanol] yielded a concentration for half-maximal inhibition (IC50) of 749 nM.
`Cc1cc(-c2cn(-c3ccc4c(c3)CC(N)(CO)CC4)nn2)ccc1OC(C)C` (stereo not shown) [Example 31, 7-[4-(3-methyl-4-isopropoxyphenyl)-1-1,2,3-triazolyl]-2-amino-1,2,3,4-tetrahydro-naphthalen-2-yl-methanol]: the IC50 at S1P1 [1] came to 5 nM. Also, the half-maximal effective concentration (EC50) on S1P1 [2] was 14.3 nM.
As for `Cc1cc(-c2cn(-c3ccc4c(c3)CCC(N)(CO)C4)nn2)ccc1OC(C)C` (stereo not shown) [Example 32, 6-[4-(3-methyl-4-isopropoxyphenyl)-1-1,2,3-triazolyl]-2-amino-1,2,3,4-tetrahydro-naphthalen-2-yl-methanol], the IC50 at S1P1 [1] came out at 125 nM.
